The source of these data is patent US20170112773A1, “PLASMA MEMBRANE VESICLES COMPRISING FUNCTIONAL TRANSMEMBRANE PROTEINS” (Board of Regents, the University of Texas System, priority 2015, published 2017).

Data set [1] in a line: in vitro. Conditions: human, HeLa cells.
Protocol: Recipient HeLa cells were plated in a 12 well plate at a density of 25,000 cells per well and a total media volume of 2 mL media per well. Seven hours before addition of the GPMVs, recipient cells received fresh media. Just before addition of the GPMVs, the recipient cells were rinsed once with 2 mL PBS and then incubated in 500 μL fresh PBS. Concentrated GPMVs were resuspended in fresh calcium-free GPMV buffer and counted using a hemocytometer. GPMVs were added to recipient cells at a ratio of approximately 1 GPMV per 2 recipient cells and incubated in the dark at 37° C. with 5% CO2 for 2 hours. […] After 24 hours, cell viability was analyzed using a trypan blue or 7-AAD permeability assay.
For the 7-AAD assay, the cells were trypsinized with 500 μL trypsin for 5 minutes at 37° C., 5% CO2. […] Five μL of 7-AAD was added to 45 μL of the resuspended cells, and analyzed using flow cytometry within three minutes of 7-AAD addition. At least 5,000 cells were analyzed for each trial. […] To determine the percentage of non-viable cells in each sample, a threshold was drawn on the flow cytometry fluorescence histograms at the minimum point between the population of cells excluding the dye and the population of cells including the dye. The percentage of cells with fluorescence above these thresholds were considered non-viable. […]
Data set [2] deals with HeLa cells. Conditions: 24 hours of exposure, literature; cited from earlier work.
The nature of data set [3]: in vitro. Conditions: human, MCF-7 cells.
Protocol: To test Connectosomes in a second model cell line, the assay was repeated using recipient MCF-7 cells. […] First, a control study was conducted in which the viability of a confluent monolayer of MCF-7 cells was measured 48 hours after free doxorubicin was added directly to the cell media at increasing concentrations from 10 nM to 100 μM (FIG. 4J). Next, independent cell samples were exposed to increasing concentrations of Connectosomes, which were equivalent in terms of total doxorubicin content to free doxorubicin concentrations of 180 nM, 900 nM, and 4.5 μM.
Data set [4] is described as follows: in vitro. As to conditions: human, HeLa cells. The source holds these as a separate data set.
Protocol: Recipient HeLa cells were plated in a 12 well plate at a density of 25,000 cells per well and a total media volume of 2 mL media per well. Seven hours before addition of the GPMVs, recipient cells received fresh media. Just before addition of the GPMVs, the recipient cells were rinsed once with 2 mL PBS and then incubated in 500 μL fresh PBS. Concentrated GPMVs were resuspended in fresh calcium-free GPMV buffer and counted using a hemocytometer. GPMVs were added to recipient cells at a ratio of approximately 1 GPMV per 2 recipient cells and incubated in the dark at 37° C. with 5% CO2 for 2 hours. After incubation, the recipient cells were rinsed with 2 mL media and then incubated in 2 mL fresh media at 37° C. with 5% CO2. After 24 hours, cell viability was analyzed using a trypan blue or 7-AAD permeability assay.
For the trypan blue assay, the cells were trypsinized with 500 μL trypsin for 5 minutes at 37° C., 5% CO2. […] At least 90 cells were counted for each trial using a hemocytometer. […]
The relationship between the concentration of doxorubicin added via solution and cell viability was determined by incubating recipient HeLa cells in the specified doxorubicin concentration diluted in media from a 10 mM stock in DMSO for 24 hours. Cell viability was measured using both viability assays as described above.
For data set [5], the system named is recipient HeLa cells. In words: Dye delivery study: CRO dye delivery to recipient cells, flow cytometry. It counts as cell-based. Conditions: 300 μM carbenoxolone. As for the experimental part: The media for the blocked condition was supplemented with 300 μM carbenoxolone, prepared from a 100 mM stock in water. […] Recipient cells for the blocked condition were incubated in PBS supplemented with 300 μM carbenoxolone. Calcein red-orange-loaded vesicles were formed using calcium-free GPMV buffer. […] This ratio was estimated based on hemocytometer counts of the number of vesicles and of the number of recipient cells in a 12 well dish. […] At least 7,500 cells were analyzed for each trial.
A general note: A flow cytometer gives signals particle by particle.

The test system of data set [6] is CEM-SS lymphocytes. Conditions: peptide concentration 0.1-1 mM, CEM-SS lymphocytes in culture; cited from earlier work.

The molecule `COc1cccc2c1C(=O)c1c(O)c3c(c(O)c1C2=O)C[C@@](O)(C(=O)CO)C[C@@H]3O[C@H]1C[C@H](N)[C@H](O)[C@H](C)O1` [free doxorubicin, doxorubicin] yielded a cytotoxicity at 24 h, 10 µM in data set [1] of 45%. Also, the “Cytotoxic dose of doxorubicin” value in data set [2] was “approximately 10 μM”. For the same molecule, in data set [3], the cytotoxicity at 48 h, 100 µM came out at 44%. In data set [4], this molecule had a cytotoxicity at 24 h, 10 µM of 44% and a cytotoxicity at 24 h, 100 µM of 87%.

`CC1(C)[C@@H](OC(=O)CCC(=O)O)CC[C@]2(C)[C@H]3C(=O)C=C4[C@@H]5C[C@@](C)(C(=O)O)CC[C@]5(C)CC[C@@]4(C)[C@]3(C)CC[C@@H]12` [carbenoxolone]: the “Effect of gap junction inhibitor on CRO dye delivery by Connectosomes” value in data set [5] is on record as “significantly decreased the average recipient cell fluorescence”.

Consider “SEQ ID NO:1: fusogenic peptide from influenza virus hemagglutinin HA-2”, for which the “Increase of anti-HIV potency of antisense oligonucleotides” value in data set [6] is recorded as “up to 10 fold”.
